The values that follow come from patent publication US7964731B2, “Isotopically marked quinoline derivatives as adenosin A3 receptor ligands” (Sanofi-Aventis, priority 2004, dated 2011).

Test [1] concerns the target T1, human A2a adenosine receptors transfected into HEK-293 cells (Homo sapiens, UniProt P29274).
T1 construct: purchased Receptor Biology, Inc; host or cells: HEK-293 cells (transfected), membranes
Nature of the test: Human adenosine A2a receptor binding, [3H]CGS-21680. The conditions noted are these: 1 μM test compound, radioligand [3H]CGS21680; read-out: Inhibition in 1 μM hA2A [3H]CGS21680. The protocol:
Human Adenosine A2a Receptor Binding
Incubate 7 μg of membranes (human A2, adenosine receptors transfected into HEK-293 cells, source: Receptor Biology, Inc.), in the presence of the test compound and 20 nM [^3H]CGS-21680 (2-[p-(2-carbonylethyl)phenylethylamino]-5′-N-ethylcarboxamido-adenosine) (200.000 dpm) in incubation buffer (50 mM Tris HCl, 10 mM MgCl2, 1 mM EDTA, 2 U/mL adenosine deaminase, pH 7.4). The non-specific binding is defined in the presence of […] NECA (5′-N-ethylcarboxamido-adenosine) in a total volume of 100 μl for 90 min at room temperature. Filter in vacuum over Whatman GF/B glass fibre filters (presoaked for 3 hours in 0.5% polyethylimine), wash 4× with 1 mL ice-cold buffer (50 mM Tris HCl, 10 mM MgCl2, 1 mM EDTA, 0.9% NaCl, pH 7.4) on 96-well Brandel Cell Harvester. Detection of activity: in beta-counter (1450 Microbeta, Wallac) in the presence of 200 μL HiSafe-3 cocktail. Inhibition [%]=100−((activity in the presence of test compound−non-specific activity)/(total activity−non-specific activity))*100.

Test [2] concerns the target T2, human A2b adenosine receptors transfected into HEK-293 cells (Homo sapiens, UniProt P29275).
T2 construct: purchased Receptor Biology, Inc; host or cells: HEK-293 cells (transfected), membranes
T2 sequence (P29275 1-332): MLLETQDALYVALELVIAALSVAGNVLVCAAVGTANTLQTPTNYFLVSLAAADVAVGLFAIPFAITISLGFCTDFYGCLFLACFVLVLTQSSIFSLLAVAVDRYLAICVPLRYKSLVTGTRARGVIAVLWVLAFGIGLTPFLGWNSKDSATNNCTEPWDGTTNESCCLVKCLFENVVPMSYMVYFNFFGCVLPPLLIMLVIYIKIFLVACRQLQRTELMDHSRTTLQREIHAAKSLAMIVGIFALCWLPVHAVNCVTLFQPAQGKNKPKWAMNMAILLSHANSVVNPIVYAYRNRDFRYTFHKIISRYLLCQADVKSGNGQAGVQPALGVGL
Nature of the test: Human adenosine A2b receptor binding, [3H]DPCPX. As to conditions: 1 μM test compound, radioligand [3H]DPCPX; read-out: Inhibition in 1 μM hA2B [3H]DPCPX. The protocol:
Human Adenosine A2b Receptor Binding
Binding protocol: incubate 20.8 μg of membranes (human A2b adenosine receptors transfected into HEK-293 cells, source: Receptor Biology, Inc.), in the presence of the test compound and 32.4 nM [^3H]DPCPX (8-cyclopenthyl-1,3-dipropylxanthine) (800.000 dpm) in incubation buffer (50 mM Tris-HCl, 10 mM MgCl2, 1 mM EDTA, 0.1 mM benzamidine, 2 U/mL adenosine deaminase, pH 6.5). The non-specific binding is defined in the presence of 100 μM NECA (5′-N-ethylcarboxamido-adenosine) in a total volume of 100 μL for 30 min at room temperature. Filter under 25 Hgmm vacuum over Whatman GF/C glass fibre filters (presoaked in 0.5% polyethylimine for 3 hours), wash 4× with 1 mL ice-cold 50 mM Tris HCl (pH 6.5) on 96-well Brandel Cell Harvester. Detection of activity: in beta-counter (1450 Microbeta, Wallac) in the presence of 200 μL of HiSafe-3 cocktail. Inhibition [%]=100−((activity in the presence of test compound−non-specific activity)/(total activity−non-specific activity))*100

Test [3] addresses T3, human A3 receptors (CHO-hA3 membrane preparation) (Homo sapiens, UniProt P0DMS8).
T3 sequence (P0DMS8 1-318): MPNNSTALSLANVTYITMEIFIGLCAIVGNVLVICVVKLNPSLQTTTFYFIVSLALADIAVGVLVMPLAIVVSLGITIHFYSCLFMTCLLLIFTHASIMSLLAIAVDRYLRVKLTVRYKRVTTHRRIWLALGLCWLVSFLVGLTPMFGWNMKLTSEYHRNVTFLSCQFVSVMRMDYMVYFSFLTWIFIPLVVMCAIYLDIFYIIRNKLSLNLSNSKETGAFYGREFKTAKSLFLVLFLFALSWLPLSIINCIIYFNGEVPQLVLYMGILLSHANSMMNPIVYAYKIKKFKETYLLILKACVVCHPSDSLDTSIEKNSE
Nature of the test: Human adenosine A3 receptor binding in the presence of the radioactive iodine-containing compound of Example 2/a. The conditions noted are these: radioligand of Example 2/a, 4 μg CHO-hA3 preparation, Cheng-Prusoff from IC50; read-out: Ki, the radioligand given in Example 2/a.
Protocol: (§1) Preparing membrane suspension: collect ovarium cells of cloned Chinese hamster expressing human A3 receptors (further: CHO-hA3), wash them three times with PBS, centrifuge (1000×g 10 min.) and homogenize (B.Braun Potter S) at 1500/min rotation speed. Buffer: 50 mM Tris, 10 mM MgCl2, 1 mM EDTA, pH 8.0. Centrifuge this homogenized mixture (43.000 g, 10 min), suspense the pellet in the above buffer with adjustment of the protein concentration to 0.1 mg/mL (Bradford method) and complete with 2 U/mL ADA.
Receptor Binding in the Presence of the Radioactive Iodine-Containing Compound of Example 2/a:
Incubate the CHO-hA3 membrane preparation (protein content 4 μg) in the presence of the test compound and 0.5 nM of the compound containing radioactive iodine (100.000 cpm), described in Example 2/a, in incubation buffer (50 mM Tris, pH 8.0, 10 mM MgCl2, 1 mM EDTA, 0.08% CHAPS, 0.5% BSA, 2 U/mL adenosine deaminase). […] Detection of radioactivity: in gamma-counter (1470 Wizard, Wallac). […]
Knowing the KD values, by the Cheng-Prusoff equation (Y. J. Cheng and W. H. Prusoff, Biochem. Pharmacol. 22:3099, 1973) the Ki constants of the investigated reference compounds and that of the starting compound of Example 2/b (i.e. of the un-labeled analogue of the new radioligand of Example 2/a) were calculated on the basis of the IC50 values.

Test [4] addresses T3, human A3 receptors (CHO-hA3 membrane preparation). Nature of the test: Human adenosine A3 receptor binding in the presence of [125I]AB-MECA.
Protocol: Human Adenosine A3 Receptor Binding
as §1
Receptor Binding in the Presence of [^125I]AB-MECA:
Incubate the CHO-hA3 membrane preparation (protein content 2 μg) in the presence of the test compound and 0.5 nM [^125I]AB-MECA (4-amino-3-iodo-benzyl-5′-N-methylcarboxamide-adenosine) (100.000 cpm) in incubation buffer (50 mM Tris, 10 mM MgCl2, 1 mM EDTA, 2 U/mL adenosine deaminase, pH 8.0). […] Filter under 25 Hgmm vacuum over Whatman GF/C glass fibre filters (presoaked in 0.5% polyethylimine for 3 hours), wash 4× with 1 mL ice-cold buffer (50 mM Tris, 10 mM MgCl2, 1 mM EDTA, pH 8) on 96-well Brandel Cell Harvester. Detection of radioactivity: in gamma-counter (1470 Wizard, Wallac). Inhibition [%]=100−((activity in the presence of test compound−non-specific activity)/(total activity−non-specific activity))*100.
Test [5] deals with T4, human A1 receptors (CHO-hA1 membrane preparation) (Homo sapiens, UniProt P30542).
T4 sequence (P30542 1-326): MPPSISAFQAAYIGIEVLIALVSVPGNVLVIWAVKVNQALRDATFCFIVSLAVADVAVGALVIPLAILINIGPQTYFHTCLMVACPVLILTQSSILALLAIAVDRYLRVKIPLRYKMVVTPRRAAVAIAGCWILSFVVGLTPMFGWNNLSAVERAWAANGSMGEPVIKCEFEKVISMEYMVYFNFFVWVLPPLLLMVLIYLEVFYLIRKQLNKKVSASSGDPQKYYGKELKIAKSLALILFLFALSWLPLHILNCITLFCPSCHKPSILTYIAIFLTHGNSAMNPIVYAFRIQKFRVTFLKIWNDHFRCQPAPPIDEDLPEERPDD
Nature of the test: Human adenosine A1 receptor binding, [3H]CCPA. The conditions noted are these: 1 μM test compound, radioligand [3H]CCPA. The protocol: Preparing membrane suspension: collect ovarium cells of cloned Chinese hamster expressing human A1 receptors (further: CHO-hA1), wash them three times with PBS, centrifuge (1000×g 10 min.) and homogenize (B.Braun Potter S) at 1500/min rotation speed. Buffer: 50 mM Tris HCl, pH 7,4. Centrifuge this homogenized mixture (43.000 g, 10 min), suspense the pellet in the above buffer with adjustment of the protein concentration to 5 mg/mL (Bradford method) and complete with 2 U/mL ADA. […] Filter over Whatman GF/B glass fibre filters (presoaked in 0.5% polyethylimine for 3 hours), wash 4× with 1 mL ice-cold 50 mM Tris HCl (pH 7.4) on 96-well Brandel Cell Harvester. Detection of activity: in 96-well plate in the presence of HiSafe-3 cocktail in beta-counter (1450 Microbeta, Wallac). Inhibition [%]=100−((activity in the presence of test compound−non-specific activity)/(total activity−non-specific activity))*100

The target of test [6] is T5, human adenosine A3 receptor (CHO-hA3 membrane preparation) (Homo sapiens, UniProt P0DMS8).
T5 sequence (P0DMS8 1-318): T3 sequence (P0DMS8 1-318)
Nature of the test: Scatchard analysis of radioisotope saturation curves of the radioligand of Example 2/a. The class given is binding.
Protocol: as §1
Incubate the CHO-hA3 membrane preparation (protein content 4 μg) in the presence of the test compound and 0.5 nM of the compound containing radioactive iodine (100.000 cpm), described in Example 2/a, in incubation buffer (50 mM Tris, pH 8.0, 10 mM MgCl2, 1 mM EDTA, 0.08% CHAPS, 0.5% BSA, 2 U/mL adenosine deaminase). […] Keep the isotop preparation and the reaction mixture in polyethylene tube to decrease adsorption. […] Detection of radioactivity: in gamma-counter (1470 Wizard, Wallac). […]
On the basis of radioisotop saturation curves, by Scatchard analysis (G. Scatchard, Ann. N. Y. Acad. Sci. 51:660, 1949) the dissociation constant (KD) of the new radioligand of Example 2/a on CHO-hA3 membrane preparation is determined.

As a reminder, the inhibition is the relative decrease from the control value, in per cent. What is called Kd is the concentration at which binding is half-saturated.

T1 sequence (P29274 whole entry): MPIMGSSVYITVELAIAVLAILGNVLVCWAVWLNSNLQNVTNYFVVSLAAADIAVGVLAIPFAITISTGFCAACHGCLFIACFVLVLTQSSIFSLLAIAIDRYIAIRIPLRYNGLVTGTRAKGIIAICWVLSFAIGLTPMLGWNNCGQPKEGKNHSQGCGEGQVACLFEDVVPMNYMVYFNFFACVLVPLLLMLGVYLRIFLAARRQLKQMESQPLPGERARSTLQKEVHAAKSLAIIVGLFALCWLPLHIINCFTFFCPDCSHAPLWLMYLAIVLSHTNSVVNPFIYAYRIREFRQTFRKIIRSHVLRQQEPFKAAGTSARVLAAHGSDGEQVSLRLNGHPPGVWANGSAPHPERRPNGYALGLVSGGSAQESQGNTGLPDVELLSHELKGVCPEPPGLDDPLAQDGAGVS

`COc1ccc(C(=O)Nc2nc3ccc(I)cc3c(NCc3cccs3)c2C#N)cc1` [The starting compound of Example 2/b, 4-Methoxy-N-(6-iodo-4-[2-thienylmethylamino]-3-cyanoquinolin-2-yl)benzamide]: the figures for the inhibition at 1 µM in test [1], in test [2] and in test [5] were 29%, -16% and 4%, respectively. In addition, the Ki came out at 1.3 nM in test [3] and 1.5 nM in test [4] (radioligand [125I]AB-MECA, CHO-hA3 membranes). The “selectivity for adenosine A3 receptor compared to the other adenosine receptor sub-types” value in test [4] (A3 versus A1, A2a, A2b) is given as “at least thousand-fold selectivity”.
Take `COc1ccc(C(=O)Nc2nc3ccc([125I])cc3c(NCc3cccs3)c2C#N)cc1` [Example 2/a, 4-Methoxy-N-(6-[^125I]iodo-4-[2-thienylmethylamino]-3-cyanoquinolin-2-yl)benzamide]: the Kd in test [6] (0.156 nM-10 nM radioligand, 4 μg protein CHO-hA3, read-out: dissociation constant (KD)) came out at 4 nM. Also, the maximal binding capacity in test [6] (4 μg protein CHO-hA3) worked out at 985 femtomol/1 mg protein.
